# Data taken from patent US20250136578A1 (Kolm Therapeutics Inc., priority 2023, published 2025).
# Like-named read-outs stand apart in the source and are kept apart here.
# How the values were obtained:
# [1] = target: AR / CBP ternary complex (Homo sapiens, UniProt P10275+Q92793); experiment: Ternary complex formation assay (sandwich ELISA, AR capture, CBP antibody detection) in VCaP cell lysates; type: cell-based
# Procedure, shortened: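 VCaP cells in 5% charcoal-stripped FBS were cultured ≥3 days and then given bifunctional compound for 1.5 h. Lysates went onto AR-antibody-coated plates. Bound CBP (or p300) was detected with a rabbit antibody plus HRP anti-rabbit, using QuantaRed chemifluorescence (ex 570/em 585) read immediately, at 5 min and at 15 min.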
# [2] = system: VCaP cells; experiment: VCaP growth inhibition assay (CTG); type: cell-based; conditions: Homo sapiens, 216 h, 30 pM R1881, 9 days
# Procedure, shortened: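 VCaP cells in phenol red-free DMEM with 5% charcoal-stripped serum were stimulated with 30 pM R1881 (final) and treated with compound from 100 nM to 10 fM final (1:5 dilutions) for 9 days at 37 °C. Viability was read by CellTiter-Glo luminescence, and IC50 came from 4-parameter logistic fits.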
# [3] = treated 1.5 hours, rabbit CBP or p300 antibody detection, average, read-out: Average Ternary Complex
# [4] = read-out: Average Ternary Complex, treated 1.5 hours, rabbit CBP or p300 antibody detection
# AR / CBP ternary complex, sequence (P10275 whole entry): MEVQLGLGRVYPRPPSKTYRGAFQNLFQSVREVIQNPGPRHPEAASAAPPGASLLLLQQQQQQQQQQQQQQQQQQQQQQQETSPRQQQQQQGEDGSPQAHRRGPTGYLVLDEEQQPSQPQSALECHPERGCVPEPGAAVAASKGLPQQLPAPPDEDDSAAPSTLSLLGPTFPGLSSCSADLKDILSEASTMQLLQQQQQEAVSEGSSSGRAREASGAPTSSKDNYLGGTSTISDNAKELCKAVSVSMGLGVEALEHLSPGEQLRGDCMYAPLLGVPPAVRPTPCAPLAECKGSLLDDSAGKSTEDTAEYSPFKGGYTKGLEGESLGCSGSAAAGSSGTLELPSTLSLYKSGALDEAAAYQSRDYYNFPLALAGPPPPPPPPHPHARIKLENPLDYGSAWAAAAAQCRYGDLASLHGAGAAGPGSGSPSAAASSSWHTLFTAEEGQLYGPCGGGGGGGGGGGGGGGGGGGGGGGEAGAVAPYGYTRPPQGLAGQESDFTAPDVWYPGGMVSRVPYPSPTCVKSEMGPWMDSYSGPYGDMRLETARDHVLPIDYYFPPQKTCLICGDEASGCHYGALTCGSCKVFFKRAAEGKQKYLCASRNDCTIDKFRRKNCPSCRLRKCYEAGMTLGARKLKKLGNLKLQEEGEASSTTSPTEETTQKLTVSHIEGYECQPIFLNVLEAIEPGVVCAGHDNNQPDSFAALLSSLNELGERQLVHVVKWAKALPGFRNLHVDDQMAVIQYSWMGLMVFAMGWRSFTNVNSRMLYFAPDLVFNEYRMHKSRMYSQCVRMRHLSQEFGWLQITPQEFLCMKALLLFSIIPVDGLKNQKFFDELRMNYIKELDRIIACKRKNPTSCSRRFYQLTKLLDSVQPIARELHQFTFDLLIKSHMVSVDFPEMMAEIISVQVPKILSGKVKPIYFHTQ
# AR / CBP ternary complex, sequence (Q92793 2-2442): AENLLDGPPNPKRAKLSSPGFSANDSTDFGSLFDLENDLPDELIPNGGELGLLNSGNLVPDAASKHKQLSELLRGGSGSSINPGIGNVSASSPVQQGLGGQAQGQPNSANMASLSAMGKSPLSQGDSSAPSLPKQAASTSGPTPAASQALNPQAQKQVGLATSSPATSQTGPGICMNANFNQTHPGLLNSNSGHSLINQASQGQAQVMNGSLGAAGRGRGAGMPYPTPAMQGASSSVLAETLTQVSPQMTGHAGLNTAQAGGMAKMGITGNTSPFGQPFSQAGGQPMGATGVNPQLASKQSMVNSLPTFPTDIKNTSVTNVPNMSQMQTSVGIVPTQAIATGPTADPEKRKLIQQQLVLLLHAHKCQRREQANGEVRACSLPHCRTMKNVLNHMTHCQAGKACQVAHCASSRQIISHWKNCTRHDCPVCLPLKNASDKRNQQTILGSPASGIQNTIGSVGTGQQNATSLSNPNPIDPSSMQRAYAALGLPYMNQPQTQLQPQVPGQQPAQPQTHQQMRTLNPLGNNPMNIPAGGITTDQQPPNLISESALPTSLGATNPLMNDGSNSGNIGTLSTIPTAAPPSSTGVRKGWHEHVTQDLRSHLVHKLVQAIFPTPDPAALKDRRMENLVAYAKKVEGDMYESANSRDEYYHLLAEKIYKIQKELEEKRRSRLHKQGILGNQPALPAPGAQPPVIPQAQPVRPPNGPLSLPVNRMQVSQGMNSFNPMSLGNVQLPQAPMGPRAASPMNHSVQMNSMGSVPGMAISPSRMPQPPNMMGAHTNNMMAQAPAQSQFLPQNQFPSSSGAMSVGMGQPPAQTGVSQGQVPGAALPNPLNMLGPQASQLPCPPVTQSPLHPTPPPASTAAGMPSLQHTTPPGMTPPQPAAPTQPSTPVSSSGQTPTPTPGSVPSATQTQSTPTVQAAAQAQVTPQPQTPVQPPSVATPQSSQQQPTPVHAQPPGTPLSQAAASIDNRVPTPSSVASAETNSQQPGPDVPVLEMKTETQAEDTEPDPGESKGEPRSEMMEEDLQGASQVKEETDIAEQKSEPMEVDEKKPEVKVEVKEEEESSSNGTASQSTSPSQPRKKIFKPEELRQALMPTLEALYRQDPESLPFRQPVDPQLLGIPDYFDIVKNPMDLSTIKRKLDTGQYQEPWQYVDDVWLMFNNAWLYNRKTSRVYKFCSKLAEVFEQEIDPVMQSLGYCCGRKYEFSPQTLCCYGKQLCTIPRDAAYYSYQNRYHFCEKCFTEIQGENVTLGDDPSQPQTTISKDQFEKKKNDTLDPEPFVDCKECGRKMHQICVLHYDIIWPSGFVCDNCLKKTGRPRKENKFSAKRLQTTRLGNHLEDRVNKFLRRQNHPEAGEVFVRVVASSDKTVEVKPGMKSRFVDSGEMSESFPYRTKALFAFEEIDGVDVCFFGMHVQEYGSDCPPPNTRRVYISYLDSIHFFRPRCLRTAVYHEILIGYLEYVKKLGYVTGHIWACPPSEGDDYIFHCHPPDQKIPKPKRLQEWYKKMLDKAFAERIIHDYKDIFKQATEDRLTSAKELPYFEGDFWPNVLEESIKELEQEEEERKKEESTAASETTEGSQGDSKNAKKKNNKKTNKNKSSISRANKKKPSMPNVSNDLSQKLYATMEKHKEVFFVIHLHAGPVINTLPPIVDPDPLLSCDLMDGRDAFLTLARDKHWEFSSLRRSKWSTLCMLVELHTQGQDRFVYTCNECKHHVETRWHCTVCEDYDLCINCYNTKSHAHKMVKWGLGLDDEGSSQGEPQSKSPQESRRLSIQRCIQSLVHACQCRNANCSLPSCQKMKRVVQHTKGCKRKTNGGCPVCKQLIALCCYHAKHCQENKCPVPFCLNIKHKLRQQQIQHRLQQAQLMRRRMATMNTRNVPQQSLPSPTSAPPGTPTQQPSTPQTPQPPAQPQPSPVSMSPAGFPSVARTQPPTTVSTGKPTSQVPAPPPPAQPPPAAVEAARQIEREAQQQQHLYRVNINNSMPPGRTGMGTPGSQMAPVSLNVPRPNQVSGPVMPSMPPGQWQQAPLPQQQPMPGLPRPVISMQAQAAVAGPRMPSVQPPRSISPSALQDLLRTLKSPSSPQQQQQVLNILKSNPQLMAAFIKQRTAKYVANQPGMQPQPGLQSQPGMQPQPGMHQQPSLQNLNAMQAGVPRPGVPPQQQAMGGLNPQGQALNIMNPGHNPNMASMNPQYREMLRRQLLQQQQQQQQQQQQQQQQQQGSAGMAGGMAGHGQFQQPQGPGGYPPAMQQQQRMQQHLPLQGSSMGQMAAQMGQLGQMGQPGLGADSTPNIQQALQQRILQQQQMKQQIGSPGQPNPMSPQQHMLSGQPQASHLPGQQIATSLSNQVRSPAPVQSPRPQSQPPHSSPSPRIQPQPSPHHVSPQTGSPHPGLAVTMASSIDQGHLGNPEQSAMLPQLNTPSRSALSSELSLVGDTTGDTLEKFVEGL
"EC50 [1, 3] [nM]",IC50 [2] [nM],SMILES,"EC50 [1, 4] [nM]"
1 to 10,0.1 to 1,"CC(=O)N1CCc2c(c(-c3cccc4cc(-c5cnn(C)c5)ncc34)nn2C2CCN(CC3CCN(c4ccc(C(=O)N[C@H]5CC[C@H](Oc6ccc(C#N)c(Cl)c6)CC5)cc4)CC3)CC2)C1 [Compound 162, 4-[4-[[4-[5-acetyl-3-[3-(1-methylpyrazol-4-yl)-8-isoquinolyl]-6,7-dihydro-4H-pyrazolo[4,3-c]pyridin-1-yl]-1-piperidyl]methyl]-1-piperidyl]-N-[4-(3-chloro-4-cyano-phenoxy)cyclohexyl]benzamide]",–
< 1,0.1 to 1,"CC(=O)N1CCc2c(c(N3CCCc4cc(-c5cnn(C)c5)c(C(F)F)cc43)nn2[C@H]2CC[C@H](CC3CCN(c4ccc(C(=O)N[C@H]5CC[C@H](Oc6ccc(C#N)c(Cl)c6)CC5)nn4)CC3)CC2)C1 [Compound 145, 6-[4-[[4-[5-acetyl-3-[7-(difluoromethyl)-6-(1-methylpyrazol-4-yl)-3,4-dihydro-2H-quinolin-1-yl]-6,7-dihydro-4H-pyrazolo[4,3-c]pyridin-1-yl]cyclohexyl]methyl]-1-piperidyl]-N-[4-(3-chloro-4-cyano-phenoxy)cyclohexyl]pyridazine-3-carboxamide]",–
< 1,≤ 0.1,"CC(=O)N1CCc2c(c(N3CCCc4cc(-c5cnn(C)c5)c(C(F)F)cc43)nn2C2CCC3(CC2)CN(C2CCN(c4ccc(C(=O)N[C@H]5CC[C@H](Oc6ccc(C#N)c(Cl)c6)CC5)nn4)CC2)C3)C1 [Compound 238, 6-[4-[7-[5-acetyl-3-[7-(difluoromethyl)-6-(1-methylpyrazol-4-yl)-3,4-dihydro-2H-quinolin-1-yl]-6,7-dihydro-4H-pyrazolo[4,3-c]pyridin-1-yl]-2-azaspiro[3.5]nonan-2-yl]-1-piperidyl]-N-[4-(3-chloro-4-cyano-phenoxy)cyclohexyl]pyridazine-3-carboxamide]",–
< 1,0.1 to 1,"CC(=O)N1CCc2c(c(N3CCCc4cc(C#N)ccc43)nn2C2CCC3(CC2)CCN(c2ccc(C(=O)N[C@H]4CC[C@H](Oc5ccc(C#N)c(Cl)c5)CC4)nn2)CC3)C1 [Compound 113, 6-[9-[5-acetyl-3-(6-cyano-3,4-dihydro-2H-quinolin-1-yl)-6,7-dihydro-4H-pyrazolo[4,3-c]pyridin-1-yl]-3-azaspiro[5.5]undecan-3-yl]-N-[4-(3-chloro-4-cyano-phenoxy)cyclohexyl]pyridazine-3-carboxamide]",–
< 1,≤ 0.1,"CC(=O)N1CCc2c(c(N3CCCc4cc(-c5cnn(C)c5)c(C(F)F)cc43)nn2C2CCN(C(=O)CC3CCN(c4ccc(C(=O)N[C@H]5CC[C@H](Oc6ccc(C#N)c(Cl)c6)CC5)nn4)CC3)CC2)C1 [Compound 14, 6-[4-[2-[4-[5-acetyl-3-[7-(difluoromethyl)-6-(1-methylpyrazol-4-yl)-3,4-dihydro-2H-quinolin-1-yl]-6,7-dihydro-4H-pyrazolo[4,3-c]pyridin-1-yl]-1-piperidyl]-2-oxo-ethyl]-1-piperidyl]-N-[4-(3-chloro-4-cyano-phenoxy)cyclohexyl]pyridazine-3-carboxamide]",–
10 to 100,> 100,"CN1C(=O)CCc2cc(-c3cccc4cc(-c5ccc(CCC6CCN(c7ccc(C(=O)N[C@H]8CC[C@H](Oc9ccc(C#N)c(Cl)c9)CC8)nn7)CC6)nc5)ncc34)ccc21 [Compound 58, N-[4-(3-chloro-4-cyano-phenoxy)cyclohexyl]-6-[4-[2-[5-[8-(1-methyl-2-oxo-3,4-dihydroquinolin-6-yl)-3-isoquinolyl]-2-pyridyl]ethyl]-1-piperidyl]pyridazine-3-carboxamide]",–
< 1,0.1 to 1,"CC(=O)N1CCc2c(c(N3CCCc4cc(-c5nccs5)c(C(F)F)cc43)nn2C2CCN(CC3CCN(c4ccc(C(=O)N[C@H]5CC[C@H](Oc6ccc(C#N)c(Cl)c6)CC5)nn4)CC3)CC2)C1 [Compound 255, 6-[4-[[4-[5-acetyl-3-[7-(difluoromethyl)-6-thiazol-2-yl-3,4-dihydro-2H-quinolin-1-yl]-6,7-dihydro-4H-pyrazolo[4,3-c]pyridin-1-yl]-1-piperidyl]methyl]-1-piperidyl]-N-[4-(3-chloro-4-cyano-phenoxy)cyclohexyl]pyridazine-3-carboxamide]",–
< 1,≤ 0.1,"CC(=O)N1CCc2c(c(N3CCCc4cc(-c5cnn(C)c5)c(C(F)F)cc43)nn2C2CCN(C3(C)CCN(c4ccc(C(=O)N[C@H]5CC[C@H](Oc6ccc(C#N)c(Cl)c6)CC5)nn4)CC3)CC2)C1 [Compound 201, 6-[4-[4-[5-acetyl-3-[7-(difluoromethyl)-6-(1-methylpyrazol-4-yl)-3,4-dihydro-2H-quinolin-1-yl]-6,7-dihydro-4H-pyrazolo[4,3-c]pyridin-1-yl]-1-piperidyl]-4-methyl-1-piperidyl]-N-[4-(3-chloro-4-cyano-phenoxy)cyclohexyl]pyridazine-3-carboxamide]",–
< 1,≤ 0.1,"CC(=O)N1CCc2c(c(N3CCCc4cc(-c5cnn(C)c5)c(C(F)F)cc43)nn2C2CCN(C3CC4(CCC(Oc5ccc(C(=O)N[C@H]6CC[C@H](Oc7ccc(C#N)c(Cl)c7)CC6)nn5)CC4)C3)CC2)C1 (stereo partly drawn) [Compound 252, 6-[2-[4-[5-acetyl-3-[7-(difluoromethyl)-6-(1-methylpyrazol-4-yl)-3,4-dihydro-2H-quinolin-1-yl]-6,7-dihydro-4H-pyrazolo[4,3-c]pyridin-1-yl]-1-piperidyl]spiro[3.5]nonan-7-yl]oxy-N-[4-(3-chloro-4-cyano-phenoxy)cyclohexyl]pyridazine-3-carboxamide]",–
< 1,≤ 0.1,"CC(=O)N1CCc2c(c(-c3cccc4cc(-c5cnn(CC6CCN(c7ccc(C(=O)N[C@H]8CC[C@H](Oc9ccc(C#N)c(Cl)c9)CC8)nn7)CC6)c5)ncc34)nn2C2CCOCC2)C1 [Compound 22, 6-[4-[[4-[8-(5-acetyl-1-tetrahydropyran-4-yl-6,7-dihydro-4H-pyrazolo[4,3-c]pyridin-3-yl)-3-isoquinolyl]pyrazol-1-yl]methyl]-1-piperidyl]-N-[4-(3-chloro-4-cyano-phenoxy)cyclohexyl]pyridazine-3-carboxamide]",–
< 1,0.1 to 1,"CC(=O)N1CCc2c(c(-c3cccc4cc(-c5cnn(CCOC6CC7(C6)CN(c6ccc(C(=O)N[C@H]8CC[C@H](Oc9ccc(C#N)c(Cl)c9)CC8)nn6)C7)c5)ncc34)nn2C2CCOCC2)C1 [Compound 63, 6-[6-[2-[4-[8-(5-acetyl-1-tetrahydropyran-4-yl-6,7-dihydro-4H-pyrazolo[4,3-c]pyridin-3-yl)-3-isoquinolyl]pyrazol-1-yl]ethoxy]-2-azaspiro[3.3]heptan-2-yl]-N-[4-(3-chloro-4-cyano-phenoxy)cyclohexyl]pyridazine-3-carboxamide]",–
< 1,≤ 0.1,"CO[C@H]1CN(c2ccc(C(=O)N[C@H]3CC[C@H](Oc4ccc(C#N)c(Cl)c4)CC3)nn2)CC[C@@H]1CN1CCC(n2nc(N3CCCc4cc(-c5cnn(C)c5)c(C(F)F)cc43)c3c2CCN(C(C)=O)C3)CC1 (stereo in doubt) [Compound 220, 6-[4-[[4-[5-acetyl-3-[7-(difluoromethyl)-6-(1-methylpyrazol-4-yl)-3,4-dihydro-2H-quinolin-1-yl]-6,7-dihydro-4H-pyrazolo[4,3-c]pyridin-1-yl]-1-piperidyl]methyl]-3-methoxy-1-piperidyl]-N-[4-(3-chloro-4-cyano-phenoxy)cyclohexyl]pyridazine-3-carboxamide]",–
1 to 10,0.1 to 1,"Cn1c(=O)n(C)c2cc(N3CCCc4cc(-c5ccc(CCC6CCN(c7ccc(C(=O)N[C@H]8CC[C@H](Oc9ccc(C#N)c(Cl)c9)CC8)nn7)CC6)nc5)ncc43)ccc21 [Compound 54, N-[4-(3-chloro-4-cyano-phenoxy)cyclohexyl]-6-[4-[2-[5-[1-(1,3-dimethyl-2-oxo-benzimidazol-5-yl)-3,4-dihydro-2H-1,7-naphthyridin-6-yl]-2-pyridyl]ethyl]-1-piperidyl] pyridazine-3-carboxamide]",–

SMILES,"EC50 [1, 3] [nM]",IC50 [2] [nM],"EC50 [1, 4] [nM]"
"CC(=O)N1CCc2c(c(N3CCCc4cc(-c5cnn(C)c5)c(C(F)F)cc43)nn2C2CCN(C(=O)CC3CCN(c4ccc(C(=O)N[C@H]5CC[C@H](N(C)c6ccc(C#N)c(Cl)c6)CC5)cc4)CC3)CC2)C1 [Compound 13, 4-[4-[2-[4-[5-acetyl-3-[7-(difluoromethyl)-6-(1-methylpyrazol-4-yl)-3,4-dihydro-2H-quinolin-1-yl]-6,7-dihydro-4H-pyrazolo[4,3-c]pyridin-1-yl]-1-piperidyl]-2-oxo-ethyl]-1-piperidyl]-N-[4-(3-chloro-4-cyano-N-methyl-anilino)cyclohexyl]benzamide]",–,0.1 to 1,< 1
"CC(=O)N1CCc2c(c(N3CCCc4cc(-c5cnn(C)c5)c(C(F)F)cc43)nn2C2CCN(CC3CC4CCC(C3)N4c3ccc(C(=O)N[C@H]4CC[C@H](Oc5ccc(C#N)c(Cl)c5)CC4)nn3)CC2)C1 (stereo partly drawn) [Compound 126, 6-[3-[[4-[5-acetyl-3-[7-(difluoromethyl)-6-(1-methylpyrazol-4-yl)-3,4-dihydro-2H-quinolin-1-yl]-6,7-dihydro-4H-pyrazolo[4,3-c]pyridin-1-yl]-1-piperidyl]methyl]-8-azabicyclo[3.2.1]octan-8-yl]-N-[4-(3-chloro-4-cyano-phenoxy)cyclohexyl]pyridazine-3-carboxamide]",–,≤ 0.1,< 1
